# According to US12521415B2, “Accelerating repair of mucosal injury using gold(III) compounds” (University of Kentucky Research Foundation, priority 2020, dated 2026):
# “Also recorded” adds a separate entry of the source.
# What was measured:
# [1] = system: human colonoids; test: AmplexRed H2O2 production in human colonoid monolayer cultures; format: cell-based
# Method: (§1) FIG. 11A includes representative images showing AuPhos-induced (200 nM) mtROS (superoxide) production using MitoSOX Red assay.
# Murine IEC will be isolated as above. Human biopsies will be incubated for 15 min at RT in CMF-HBSS/10 mM DTT with following incubation at 4° C. CMF-HBSS/8 mM EDTA for 75 min. Epithelial cells will be dislodged by vigorous shaking. Large pieces of tissue will be discarded, epithelial cells harvested by centrifugation at 40 g/5 min and imbedded in Matrigel. Both human and mouse colonoids will be grown in WRN medium (conditional medium from L-WRN cells (ATCC CRL-3276)) supplemented with 20% FBS, 500 nM A 83-01, 10 μM SB 202190, 10 μM Y27632, 2.5 μM CHIR99021, 100 μg/ml piromicin and 2.5 μg/ml amphotericin. Colonoids will be passaged every 5-7 days. NCM460 cells derived from normal human colon mucosa were purchased from INCELL Corporation, and will be cultured in M3:10 medium with 30% conditioned medium from previous culture under standard incubation conditions.
# Given the in vivo data in FIG. 10, it was determined if AuPhos increases ROS levels within mitochondria (mtROS). To examine this possibility, colonic NCM460 cells were cultured, treated with a positive control (Rotenone), AuPhos (200 nM) or AuPhos with PEG-SOD (negative control) and analyzed with MitoSOX Red (an indicator of mitochondrial superoxide). […]
# [2] = system: colonic NCM460 cells; test: MitoSOX Red assay of mtROS (superoxide) production; format: cell-based, human
# Method: as §1
# Given the in vivo data in FIG. 10, it was determined if AuPhos increases ROS levels within mitochondria (mtROS). To examine this possibility, colonic NCM460 cells were cultured, treated with a positive control (Rotenone), AuPhos (200 nM) or AuPhos with PEG-SOD (negative control) and analyzed with MitoSOX Red (an indicator of mitochondrial superoxide). […] Studies in FIGS. 11C and 11D used human colonoids isolated from normal patients to examine effects of AuPhos on hydrogen peroxide (H2O2) production from normal and low-dose TNF-stimulated colonoids.
# [3] = system: serum IL-6; test: Anti-CD3 mAb-induced serum IL-6 in control and AuPhos-treated mice; format: in vivo, mouse; conditions: 25 mg/kg i.g. every 3d x2; anti-CD3 mAb injected
# Method: FIG. 12A RT-qPCR analysis of cytokines and chemokine genes in AuPhos vs. controls at 9 and 13 days after DSS initiation. FIG. 12B RT-qPCR analysis of cytokines and chemokine genes in AuPhos vs. controls at 9 and 13 days after DSS initiation. FIG. 12C Quantitative RT-PCR analysis of inflammasome markers in D13 DSS mice. Statistical significance was determined using multiple t-test with Holm-Sidak's multiple method. FIG. 12D Serum IL-6 in AuPhos treated (n=4) and control mice, with or without anti-CD3 antibody. ★<0.05; ★★<0.01.
# Findings in FIG. 9A-9D indicate that AuPhos attenuates tissue inflammation and enhances mucosal healing in DSS colitis mice. To interrogate the effects of AuPhos on Th1 and Treg cytokine production as well as chemokine and inflammasome mediators, mRNA from mice at time points indicated (as in FIG. 9A-9D). […] To test the question of whether AuPhos affected leukocytes directly, control and AuPhos-treated (25 mg/kg i.g. dosed every 3d×2) were injected with anti-CD3 mAb (antiTCR mAb). It is known that CD3 mAb induces a cytokine storm in the periphery and intestine.
# [4] = system: colonic IEC; test: High-resolution respirometry (OCR), mtDNA and mRNA of colonic IEC from AuPhos-fed mice; format: in vivo, mouse
# Description: FIG. 10B includes high resolution respirometry results showing OCR in mitochondrial complexes of IECs from (A). […] FIG. 10D provides results of RT-qPCR analysis of genes associated with mitochondrial respiratory enzymes in AuPhos vs. control DSS mice. Stats—2-way ANOVA with Sidak's multiple comparison test. ★★<0.01, ★★★<0.0001.
# FIGS. 16A-16E illustrate the pharmacokinetics and effects of AuPhos on mitochondrial bioenergetics. FIG. 16A. Biodistribution and pharmacokinetics of AuPhos in different tissues; Colon, Small bowel, Spleen, Liver after a single intragastric (i.g.) gavage (25 mg/kg) with measurements of AuPhos tissue levels (graphite furnace atomic absorption spectroscopy) at times indicated. FIG. 16B. Mitochondrial uptake of AuPhos by measuring gold content in mitochondrial fractions in normal colonocytes (NCM460). FIG. 16C. High-resolution respirometry showing OCR in mitochondrial complexes of freshly isolated IECs from AuPhos (25 mg/kg; q3D×3 doses)-fed mice compared to controls (vehicle only). Stats—2-way ANOVA with Sidak's multiple comparison test. ß<0.05, ßß<0.01. FIG. 16D.
# Isolated IECs will be suspended in a mitochondria respiration medium and integrated respiration evaluated using Oxygraph-2K (Oroboros Instruments). Briefly, the capacity of electron transport system (ETS) will be evaluated by direct titration of protonophore, carbonyl cyanide p-(trifluoromethoxy) phenylhydrazone ([…]) after stabilization of routine respiration. After routine endogenous respiratory phase, cells will be permeabilized with digitonin and complex I (CI) substrates malate and pyruvate (5 mM, respectively).
# OxPHOS will be then be stimulated by subsequent addition of ADP followed by additional CI substrate glutamate (5 mM). […] Residual non-mitochondrial oxygen consumption will be determined by addition of complex III inhibitor antimycin-A (1 ug/ml). Oxygen consumption rate (OCR) of isolated mitochondria will also be evaluated using Oxygraph-2K or high-throughput Seahorse XFe24 Extracellular Flux Analyzer (Agilent Technologies). […]
structure (smiles),measurement,setting,value
[Cl][Au]1([c]2ccccc2Cc2ccccn2)[P](c2ccccc2)(c2ccccc2)c2ccccc2[P]1(c1ccccc1)c1ccccc1 [AuPhos],hydrogen peroxide (H2O2) production,"[1]; AuPhos 200 nM, normal and low-dose TNF-stimulated human colonoids, AmplexRed",increased in normal and TNF-treated cells; also recorded: Increases H2O2 production
same,AuPhos-induced ROS (H2O2) with PEG catalase,[1]; human colonoids,specifically digested with PEG catalase
same,AuPhos-induced mtROS production with PEG-SOD,"[2]; AuPhos 200 nM with PEG-SOD (negative control), NCM460",specifically inhibited with PEG-SOD
same,rise in mtROS production,"[2]; AuPhos 200 nM, NCM460 cells, MitoSOX Red",45%
same,anti-CD3 induced increases in serum IL-6,[3],did not affect
same,OCR in IEC in vivo,"[4]; 25 mg/kg q3D x3 doses, freshly isolated colonic IEC, OROBOROS 2K",increased OCR in IEC in vivo from states II-V; also recorded: enhances mitochondrial respiration; also recorded: increased OCR (OxPHOS)
same,mtDNA (mtDNA/nucDNA ratio) in IEC,[4]; IEC from AuPhos-treated mice,increased mtDNA; also recorded: higher mtDNA/nucDNA ratio
same,mRNA for mitochondrial CO1 and COX2,"[4]; IEC from AuPhos-treated mice, RT-qPCR",increased
